Laboratory results as given in ChEMBL document CHEMBL1142357, “Synthesis and biological evaluation of 1-methyl-2-(3',4',5'-trimethoxybenzoyl)-3-aminoindoles as a new class of antimitotic agents and tubulin inhibitors” (J Med Chem, 2008).

Assays:
[1] = system: L1210; assay: Antiproliferative activity against mouse L1210 cells; type: functional, cell-based
[2] = system: FM3A; assay: Antiproliferative activity against mouse FM3A cells; type: functional, cell-based
[3] = Antiproliferative activity against human Molt4/C8 cells; type: functional, cell-based; details: MOLT-4
[4] = system: CCRF-CEM; assay: Antiproliferative activity against human CEM cells; type: functional, cell-based
[5] = Inhibition of bovine tubulin polymerization after 20 mins; set-up: species or system Bos taurus
[6] = organism: Bos taurus; assay: Displacement of [3H]colchicine from bovine tubulin at 5 uM
[7] = system: K562; assay: Cell cycle arrest in human K562 cells by accumulation at G0/G1 phase at 30 nM after 24 hrs by flow cytometry; type: functional
[8] = system: K562; assay: Cell cycle arrest in human K562 cells by accumulation at S phase at 30 nM after 24 hrs by flow cytometry; type: functional
[9] = system: K562; assay: Cell cycle arrest in human K562 cells by accumulation at G2/M phase at 30 nM after 24 hrs by flow cytometry; type: functional
[10] = system: K562; assay: Cell cycle arrest in human K562 cells by accumulation at A phase at 30 nM after 24 hrs by flow cytometry; type: functional
[11] = system: K562; assay: Induction of apoptosis in human K562 cells after 48 hrs by fluorescence microscopy; type: functional, cell-based; details: K562, 48 h
[12] = system: K562; assay: Induction of apoptosis in human K562 cells at 60 nM after 48 hrs by fluorescence microscopy; type: functional
[13] = system: K562; assay: Cell cycle arrest in human K562 cells by accumulation at G0/G1 phase at 200 nM after 24 hrs by flow cytometry; type: functional
[14] = system: K562; assay: Cell cycle arrest in human K562 cells by accumulation at S phase at 200 nM after 24 hrs by flow cytometry; type: functional
[15] = system: K562; assay: Cell cycle arrest in human K562 cells by accumulation at G2/M phase at 200 nM after 24 hrs by flow cytometry; type: functional
[16] = system: K562; assay: Cell cycle arrest in human K562 cells by accumulation at A phase at 200 nM after 24 hrs by flow cytometry; type: functional
[17] = system: K562; assay: Cell cycle arrest in human K562 cells by accumulation at G0/G1 phase at 3 uM after 24 hrs by flow cytometry; type: functional
[18] = system: K562; assay: Cell cycle arrest in human K562 cells by accumulation at S phase at 3 uM after 24 hrs by flow cytometry; type: functional
[19] = system: K562; assay: Cell cycle arrest in human K562 cells by accumulation at G2/M phase at 3 uM after 24 hrs by flow cytometry; type: functional
[20] = system: K562; assay: Cell cycle arrest in human K562 cells by accumulation at sub G0-G1 phase at 3 uM after 24 hrs by flow cytometry; type: functional

| IC50 [1] | IC50 [4] | IC50 [5] | Structure (SMILES) | IC50 [2] | IC50 [3] | other results |
| --- | --- | --- | --- | --- | --- | --- |
| 9.7 µM | 8.6 µM | – | COc1ccc2[nH]c(C(=O)c3cc(OC)c(OC)c(OC)c3)c(N)c2c1 | 9.9 µM | 6.9 µM | – |
| 0.0035 µM | 0.0036 µM | 2.9 µM | COc1ccc2c(C(=O)c3cc(OC)c(OC)c(OC)c3)c[nH]c2c1 | 0.0037 µM | 0.0034 µM | inhibition [6]: 84% |
| > 10 µM | 9.5 µM | – | COc1cc2[nH]c(C(=O)c3cc(OC)c(OC)c(OC)c3)c(N)c2cc1OC | > 10 µM | 8.6 µM | – |
| 1.9 µM | 0.4 µM | 6.4 µM | COc1cc(C(=O)c2c(N)c3ccc(C)cc3n2C)cc(OC)c1OC | 1.5 µM | 0.11 µM | – |
| 0.015 µM | 0.0088 µM | 1.4 µM | COc1cc(C(=O)c2c(N)c3cccc(OC)c3n2C)cc(OC)c1OC | 0.015 µM | 0.0038 µM | inhibition [6]: 76%; Activity [7]: 27%; Activity [8]: 28%; Activity [9]: 45%; Activity [10]: 24%; AC50 [11]: 0.03 µM; Activity [12]: 100% |
| 4.2 µM | 3.9 µM | 15 µM | COc1ccc2c(c1)c(N)c(C(=O)c1cc(OC)c(OC)c(OC)c1)n2C | 5.2 µM | 2.1 µM | – |
| 3.5 µM | 2.6 µM | – | COc1cc(C(=O)c2[nH]c3cc(C)ccc3c2N)cc(OC)c1OC | > 10 µM | 1.4 µM | – |
| > 10 µM | 0.63 µM | – | COc1cc(C(=O)c2[nH]c3c(OC)cccc3c2N)cc(OC)c1OC | > 10 µM | 0.64 µM | – |
| > 10 µM | > 10 µM | – | COc1cc(C(=O)c2[nH]c3cccc(OC)c3c2N)cc(OC)c1OC | > 10 µM | > 10 µM | – |
| > 10 µM | > 10 µM | – | COc1cc(C(=O)c2[nH]c3cccc(C)c3c2N)cc(OC)c1OC | > 10 µM | > 10 µM | – |
| 8.1 µM | 6.8 µM | – | COc1cc(C(=O)c2c(N)c3ccccc3n2C)cc(OC)c1OC | > 10 µM | 2.1 µM | – |
| 1.8 µM | 1.2 µM | 8.4 µM | COc1cc(C(=O)c2c(N)c3cccc(C)c3n2C)cc(OC)c1OC | 1.4 µM | 0.27 µM | – |
| > 10 µM | > 10 µM | – | COc1cc(C(=O)c2[nH]c3ccc(Cl)cc3c2N)cc(OC)c1OC | > 10 µM | > 10 µM | – |
| – | – | – | COc1ccc(/C=C\c2cc(OC)c(OC)c(OC)c2)cc1O [COMBRETASTATIN A4] | – | 0.0016 µM | – |
| > 10 µM | > 10 µM | – | CCn1c(C(=O)c2cc(OC)c(OC)c(OC)c2)c(N)c2cccc(OC)c21 | > 10 µM | 9.1 µM | – |
| > 10 µM | > 10 µM | – | CCn1c(C(=O)c2cc(OC)c(OC)c(OC)c2)c(N)c2ccccc21 | > 10 µM | > 10 µM | – |
| > 10 µM | > 10 µM | – | COc1cc(C(=O)c2c(N)c3c(C)cccc3n2C)cc(OC)c1OC | > 10 µM | > 10 µM | – |
| > 10 µM | > 10 µM | – | COc1cc(C(=O)c2[nH]c3ccccc3c2N)cc(OC)c1OC | > 10 µM | > 10 µM | – |
| > 10 µM | > 10 µM | – | COc1cc(C(=O)c2[nH]c3cc(Cl)ccc3c2N)cc(OC)c1OC | > 10 µM | 9.2 µM | – |
| 0.069 µM | 0.071 µM | 4.6 µM | COc1ccc2c(N)c(C(=O)c3cc(OC)c(OC)c(OC)c3)n(C)c2c1 | 0.097 µM | 0.057 µM | inhibition [6]: 38%; Activity [13]: 15%; Activity [14]: 33%; Activity [15]: 52%; Activity [16]: 23%; AC50 [11]: 0.15 µM |
| 5.4 µM | 5 µM | 18 µM | COc1cc2c(N)c(C(=O)c3cc(OC)c(OC)c(OC)c3)n(C)c2cc1OC | 5 µM | 5 µM | – |
| 0.97 µM | 0.32 µM | > 40 µM | COc1ccc2c(N)c(C(=O)c3cc(OC)c(OC)c(OC)c3)[nH]c2c1 | 1.6 µM | 0.63 µM | Activity [17]: 15%; Activity [18]: 35%; Activity [19]: 50%; Activity [20]: 25%; AC50 [11]: 3 µM |
| > 10 µM | > 10 µM | – | COc1cc(C(=O)c2c(N)c3c(OC)cccc3n2C)cc(OC)c1OC | > 10 µM | > 10 µM | – |
| > 10 µM | > 10 µM | – | COc1cc(C(=O)c2[nH]c3ccc(C)cc3c2N)cc(OC)c1OC | > 10 µM | > 10 µM | – |
| 1.9 µM | 1.7 µM | 10 µM | COc1cc(C(=O)c2c(N)c3cc(C)ccc3n2C)cc(OC)c1OC | 1.6 µM | 1.7 µM | – |
| > 10 µM | > 10 µM | – | CCn1c(C(=O)c2cc(OC)c(OC)c(OC)c2)c(N)c2ccc(OC)cc21 | > 10 µM | > 10 µM | – |
| > 10 µM | > 10 µM | – | COc1cc(C(=O)c2[nH]c3c(C)cccc3c2N)cc(OC)c1OC | > 10 µM | > 10 µM | – |
| 1.1 µM | 1 µM | 7.1 µM | COc1cc(C(=O)c2c(N)c3ccc(Cl)cc3n2C)cc(OC)c1OC | 0.97 µM | 0.48 µM | – |

| Structure (SMILES) | IC50 [1] | IC50 [4] | IC50 [5] | IC50 [2] | IC50 [3] | other results |
| --- | --- | --- | --- | --- | --- | --- |
| COc1cc(C(=O)c2sc3c(OC)cccc3c2N)cc(OC)c1OC | 0.033 µM | 0.0089 µM | 2.1 µM | 0.027 µM | 0.0085 µM | inhibition [6]: 39% |
